Results published in PMC8217813, “Bridging Computational Vaccinology and Vaccine Development Through Systematic Identification, Characterization, and Downselection of Conserved and Variable Circumsporozoite Protein CD4 T Cell Epitopes From Diverse Plasmodium falciparum Strains” (Frontiers in Immunology, 2021).

Test system: CD4 T cells co-cultured with autologous DCs from PBMCs
Format: cell-based, human
Settings: positive = Stimulation Index ≥1.5-fold above baseline, 5 µg/mL peptide; for Percentage of donors demonstrating IFN-γ responses, DR1 / Percentage of donors demonstrating IL-2 responses, DR1 / Percentage of donors demonstrating IL-4 responses, DR1 / Percentage of donors demonstrating IL-10 responses, DR1 / Percentage of donors demonstrating TNF-α responses, DR1: DR1 donors N=5; for Percentage of donors demonstrating IFN-γ responses, DR1 / Percentage of donors demonstrating IFN-γ responses, DR3 / Percentage of donors demonstrating IFN-γ responses, DR4 / Percentage of donors demonstrating IFN-γ responses, DR7 / Percentage of donors demonstrating IFN-γ responses, DR8 / Percentage of donors demonstrating IFN-γ responses, DR9 / Percentage of donors demonstrating IFN-γ responses, DR11 / Percentage of donors demonstrating IFN-γ responses, DR13 / Percentage of donors demonstrating IFN-γ responses, DR15: ICCS after 14-day co-culture; for Percentage of donors demonstrating IL-2 responses, DR1 / Percentage of donors demonstrating IL-4 responses, DR1 / Percentage of donors demonstrating IL-10 responses, DR1 / Percentage of donors demonstrating TNF-α responses, DR1 / Percentage of donors demonstrating IL-2 responses, DR3 / Percentage of donors demonstrating IL-4 responses, DR3 / Percentage of donors demonstrating IL-10 responses, DR3 / Percentage of donors demonstrating TNF-α responses, DR3 / Percentage of donors demonstrating IL-2 responses, DR4 / Percentage of donors demonstrating IL-4 responses, DR4 / Percentage of donors demonstrating IL-10 responses, DR4 / Percentage of donors demonstrating TNF-α responses, DR4 / Percentage of donors demonstrating IL-2 responses, DR7 / Percentage of donors demonstrating IL-4 responses, DR7 / Percentage of donors demonstrating IL-10 responses, DR7 / Percentage of donors demonstrating TNF-α responses, DR7 / Percentage of donors demonstrating IL-2 responses, DR8 / Percentage of donors demonstrating IL-4 responses, DR8 / Percentage of donors demonstrating IL-10 responses, DR8 / Percentage of donors demonstrating TNF-α responses, DR8 / Percentage of donors demonstrating IL-2 responses, DR9 / Percentage of donors demonstrating IL-4 responses, DR9 / Percentage of donors demonstrating IL-10 responses, DR9 / Percentage of donors demonstrating TNF-α responses, DR9 / Percentage of donors demonstrating IL-2 responses, DR11 / Percentage of donors demonstrating IL-4 responses, DR11 / Percentage of donors demonstrating IL-10 responses, DR11 / Percentage of donors demonstrating TNF-α responses, DR11 / Percentage of donors demonstrating IL-2 responses, DR13 / Percentage of donors demonstrating IL-4 responses, DR13 / Percentage of donors demonstrating IL-10 responses, DR13 / Percentage of donors demonstrating TNF-α responses, DR13 / Percentage of donors demonstrating IL-2 responses, DR15 / Percentage of donors demonstrating IL-4 responses, DR15 / Percentage of donors demonstrating IL-10 responses, DR15 / Percentage of donors demonstrating TNF-α responses, DR15: ICCS; for Percentage of donors demonstrating IFN-γ responses, DR3 / Percentage of donors demonstrating IL-2 responses, DR3 / Percentage of donors demonstrating IL-4 responses, DR3 / Percentage of donors demonstrating IL-10 responses, DR3 / Percentage of donors demonstrating TNF-α responses, DR3: DR3 donors N=6; for Percentage of donors demonstrating IFN-γ responses, DR4 / Percentage of donors demonstrating IL-2 responses, DR4 / Percentage of donors demonstrating IL-4 responses, DR4 / Percentage of donors demonstrating IL-10 responses, DR4 / Percentage of donors demonstrating TNF-α responses, DR4: DR4 donors N=10; for Percentage of donors demonstrating IFN-γ responses, DR7 / Percentage of donors demonstrating IL-2 responses, DR7 / Percentage of donors demonstrating IL-4 responses, DR7 / Percentage of donors demonstrating IL-10 responses, DR7 / Percentage of donors demonstrating TNF-α responses, DR7: DR7 donors N=4; for Percentage of donors demonstrating IFN-γ responses, DR8 / Percentage of donors demonstrating IL-2 responses, DR8 / Percentage of donors demonstrating IL-4 responses, DR8 / Percentage of donors demonstrating IL-10 responses, DR8 / Percentage of donors demonstrating TNF-α responses, DR8: DR8 donors N=4; for Percentage of donors demonstrating IFN-γ responses, DR9 / Percentage of donors demonstrating IL-2 responses, DR9 / Percentage of donors demonstrating IL-4 responses, DR9 / Percentage of donors demonstrating IL-10 responses, DR9 / Percentage of donors demonstrating TNF-α responses, DR9: DR9 donors N=4; for Percentage of donors demonstrating IFN-γ responses, DR11 / Percentage of donors demonstrating IL-2 responses, DR11 / Percentage of donors demonstrating IL-4 responses, DR11 / Percentage of donors demonstrating IL-10 responses, DR11 / Percentage of donors demonstrating TNF-α responses, DR11: DR11 donors N=4; for Percentage of donors demonstrating IFN-γ responses, DR13 / Percentage of donors demonstrating IL-2 responses, DR13 / Percentage of donors demonstrating IL-4 responses, DR13 / Percentage of donors demonstrating IL-10 responses, DR13 / Percentage of donors demonstrating TNF-α responses, DR13: DR13 donors N=7; for Percentage of donors demonstrating IFN-γ responses, DR15 / Percentage of donors demonstrating IL-2 responses, DR15 / Percentage of donors demonstrating IL-4 responses, DR15 / Percentage of donors demonstrating IL-10 responses, DR15 / Percentage of donors demonstrating TNF-α responses, DR15: DR15 donors N=7

IKKYLKKIKNSISTEWSPCS [ICS6]
Percentage of donors demonstrating IFN-γ responses, DR1: 20% | Percentage of donors demonstrating IL-2 responses, DR1: 20% | Percentage of donors demonstrating IL-4 responses, DR1: 0% | Percentage of donors demonstrating IL-10 responses, DR1: 20% | Percentage of donors demonstrating TNF-α responses, DR1: 20% | Percentage of donors demonstrating IFN-γ responses, DR3: 50% | Percentage of donors demonstrating IL-2 responses, DR3: 33% | Percentage of donors demonstrating IL-4 responses, DR3: 0% | Percentage of donors demonstrating IL-10 responses, DR3: 17% | Percentage of donors demonstrating TNF-α responses, DR3: 33% | Percentage of donors demonstrating IFN-γ responses, DR4: 40% | Percentage of donors demonstrating IL-2 responses, DR4: 30% | Percentage of donors demonstrating IL-4 responses, DR4: 0% | Percentage of donors demonstrating IL-10 responses, DR4: 30% | Percentage of donors demonstrating TNF-α responses, DR4: 30% | Percentage of donors demonstrating IFN-γ responses, DR7: 50% | Percentage of donors demonstrating IL-2 responses, DR7: 50% | Percentage of donors demonstrating IL-4 responses, DR7: 0% | Percentage of donors demonstrating IL-10 responses, DR7: 50% | Percentage of donors demonstrating TNF-α responses, DR7: 25% | Percentage of donors demonstrating IFN-γ responses, DR8: 25% | Percentage of donors demonstrating IL-2 responses, DR8: 0% | Percentage of donors demonstrating IL-4 responses, DR8: 0% | Percentage of donors demonstrating IL-10 responses, DR8: 0% | Percentage of donors demonstrating TNF-α responses, DR8: 0% | Percentage of donors demonstrating IFN-γ responses, DR9: 50% | Percentage of donors demonstrating IL-2 responses, DR9: 50% | Percentage of donors demonstrating IL-4 responses, DR9: 25% | Percentage of donors demonstrating IL-10 responses, DR9: 25% | Percentage of donors demonstrating TNF-α responses, DR9: 50% | Percentage of donors demonstrating IFN-γ responses, DR11: 50% | Percentage of donors demonstrating IL-2 responses, DR11: 25% | Percentage of donors demonstrating IL-4 responses, DR11: 0% | Percentage of donors demonstrating IL-10 responses, DR11: 25% | Percentage of donors demonstrating TNF-α responses, DR11: 50% | Percentage of donors demonstrating IFN-γ responses, DR13: 43% | Percentage of donors demonstrating IL-2 responses, DR13: 29% | Percentage of donors demonstrating IL-4 responses, DR13: 0% | Percentage of donors demonstrating IL-10 responses, DR13: 0% | Percentage of donors demonstrating TNF-α responses, DR13: 43% | Percentage of donors demonstrating IFN-γ responses, DR15: 43% | Percentage of donors demonstrating IL-2 responses, DR15: 29% | Percentage of donors demonstrating IL-4 responses, DR15: 14% | Percentage of donors demonstrating IL-10 responses, DR15: 43% | Percentage of donors demonstrating TNF-α responses, DR15: 43%

DKHIEKYLKRIQNSLSTEWS [ICS9]
Percentage of donors demonstrating IFN-γ responses, DR1: 40% | Percentage of donors demonstrating IL-2 responses, DR1: 20% | Percentage of donors demonstrating IL-4 responses, DR1: 0% | Percentage of donors demonstrating IL-10 responses, DR1: 0% | Percentage of donors demonstrating TNF-α responses, DR1: 40% | Percentage of donors demonstrating IFN-γ responses, DR3: 50% | Percentage of donors demonstrating IL-2 responses, DR3: 33% | Percentage of donors demonstrating IL-4 responses, DR3: 33% | Percentage of donors demonstrating IL-10 responses, DR3: 17% | Percentage of donors demonstrating TNF-α responses, DR3: 50% | Percentage of donors demonstrating IFN-γ responses, DR4: 70% | Percentage of donors demonstrating IL-2 responses, DR4: 50% | Percentage of donors demonstrating IL-4 responses, DR4: 0% | Percentage of donors demonstrating IL-10 responses, DR4: 10% | Percentage of donors demonstrating TNF-α responses, DR4: 70% | Percentage of donors demonstrating IFN-γ responses, DR7: 75% | Percentage of donors demonstrating IL-2 responses, DR7: 50% | Percentage of donors demonstrating IL-4 responses, DR7: 25% | Percentage of donors demonstrating IL-10 responses, DR7: 0% | Percentage of donors demonstrating TNF-α responses, DR7: 50% | Percentage of donors demonstrating IFN-γ responses, DR8: 50% | Percentage of donors demonstrating IL-2 responses, DR8: 75% | Percentage of donors demonstrating IL-4 responses, DR8: 0% | Percentage of donors demonstrating IL-10 responses, DR8: 0% | Percentage of donors demonstrating TNF-α responses, DR8: 100% | Percentage of donors demonstrating IFN-γ responses, DR9: 50% | Percentage of donors demonstrating IL-2 responses, DR9: 50% | Percentage of donors demonstrating IL-4 responses, DR9: 0% | Percentage of donors demonstrating IL-10 responses, DR9: 0% | Percentage of donors demonstrating TNF-α responses, DR9: 50% | Percentage of donors demonstrating IFN-γ responses, DR11: 75% | Percentage of donors demonstrating IL-2 responses, DR11: 50% | Percentage of donors demonstrating IL-4 responses, DR11: 0% | Percentage of donors demonstrating IL-10 responses, DR11: 0% | Percentage of donors demonstrating TNF-α responses, DR11: 75% | Percentage of donors demonstrating IFN-γ responses, DR13: 43% | Percentage of donors demonstrating IL-2 responses, DR13: 43% | Percentage of donors demonstrating IL-4 responses, DR13: 0% | Percentage of donors demonstrating IL-10 responses, DR13: 14% | Percentage of donors demonstrating TNF-α responses, DR13: 57% | Percentage of donors demonstrating IFN-γ responses, DR15: 57% | Percentage of donors demonstrating IL-2 responses, DR15: 43% | Percentage of donors demonstrating IL-4 responses, DR15: 14% | Percentage of donors demonstrating IL-10 responses, DR15: 43% | Percentage of donors demonstrating TNF-α responses, DR15: 43%
